This passage reports Activity and IC50 results from ChEMBL document CHEMBL3044779, “The action of herbicides on fatty acid biosynthesis and elongation in barley and cucumber” (Pest Manag Sci, 2010).

Test [1] has as its system Hordeum vulgare. The test can be described thus: Inhibition of fatty acid synthesis in Hordeum vulgare (barley) using [14C]malonate assessed as [14C]-labeled 26C fatty acid level at 1 uM after 3 hr by liquid scintillation counting (reference value: 7.6 +/- 1.8%). The test is classed as functional. Also on record: scale not given: the % may be the effect or the level left.

Test [2] relates to Hordeum vulgare. The test is described as follows: Inhibition of fatty acid synthesis in Hordeum vulgare (barley) using [14C]malonate assessed as [14C]-labeled 20C fatty acid level at 1 uM after 3 hr by liquid scintillation counting (reference value: 6.1 +/- 0.5%). The test is classed as functional. Also noted: scale not given: the % may be the effect or the level left.
Test [3] deals with Cucumis sativus. The test can be described thus: Inhibition of fatty acid synthesis in Cucumis sativus (cucumber) using [14C]acetate assessed as [14C]-labeled 16C fatty acid level at 100 uM after 3 hr by liquid scintillation counting (reference value: 31 +/- 2.8%). Also noted: scale not given: the % may be the effect or the level left. The format is functional.
The subject of test [4] is Hordeum vulgare. The test can be described thus: Inhibition of fatty acid synthesis in Hordeum vulgare (barley) using [14C]malonate assessed as [14C]-labeled 16C fatty acid level at 1 uM after 3 hr by liquid scintillation counting (reference value: 8.7 +/- 0.2%). The format is functional. Also noted: scale not given: the % may be the effect or the level left.
Test [5] has as its system Hordeum vulgare. The test can be described thus: Inhibition of fatty acid synthesis in Hordeum vulgare (barley) using [14C]acetate assessed as [14C]-labeled 16C fatty acid level at 1 uM after 3 hr by liquid scintillation counting (reference value: 23.3 +/- 0.2%). The format is functional. Also noted: scale not given: the % may be the effect or the level left.
The subject of test [6] is Cucumis sativus. The test is described as follows: Inhibition of fatty acid synthesis in Cucumis sativus (cucumber) assessed as inhibition of [14C]acetate incoporation in total fatty acids at 100 uM measured as total disintegration per g of fresh weight after 3 hr by liquid scintillation counting (reference value: 9.2 +/- 2.1 dpm x 10^6 g'1 fresh wt). The format is functional.

Test [7] has as its system Hordeum vulgare. The test is described as follows: Inhibition of fatty acid synthesis in Hordeum vulgare (barley) assessed as inhibition of [14C]malonate incoporation in total fatty acids at 1 uM measured as total disintegration per g of fresh weight after 3 hr by liquid scintillation counting (reference value: 5.4 +/- 0.9 1 dpm x 10^6 g'1 fresh wt). The test is classed as functional.

Test [8] deals with Hordeum vulgare. The test is described as follows: Inhibition of fatty acid synthesis in Hordeum vulgare (barley) assessed as inhibition of [14C]acetate incoporation in total fatty acids at 1 uM measured as total disintegration per g of fresh weight after 3 hr by liquid scintillation counting (reference value: 4.6 +/- 1.2 dpm x 10^6 g'1 fresh wt). The test is classed as functional.

The target of test [9] is T1, Acetyl-CoA carboxylase (Zea mays, UniProt Q3V4E6). The test is described as follows: Inhibition of Zea mays (maize) chloroplastic ACCase using acetyl-coA as substrate assessed as inhibition of [14C]NaHCO3 incorporation into malonyl-coA incubated for 10 min prior to substrate addition measured for 20 min by liquid scintillation counting.
T1 sequence (Q3V4E6 whole entry): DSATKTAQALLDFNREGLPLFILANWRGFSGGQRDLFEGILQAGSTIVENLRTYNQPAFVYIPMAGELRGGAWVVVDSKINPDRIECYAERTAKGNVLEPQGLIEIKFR
Test [10] deals with T1, Acetyl-CoA carboxylase. The test can be described thus: Inhibition of Zea mays (maize) cytosolic ACCase using acetyl-coA as substrate assessed as inhibition of [14C]NaHCO3 incorporation into malonyl-coA incubated for 10 min prior to substrate addition measured for 20 min by liquid scintillation counting.
Test [11] has as its system Hordeum vulgare. The test can be described thus: Inhibition of fatty acid synthesis in Hordeum vulgare (barley) using [14C]malonate assessed as [14C]-labeled 24C fatty acid level at 1 uM after 3 hr by liquid scintillation counting (reference value: 20.7 +/- 1.8%). The format is functional. Also noted: scale not given: the % may be the effect or the level left.
Test [12] has as its system Hordeum vulgare. The test is described as follows: Inhibition of fatty acid synthesis in Hordeum vulgare (barley) using [14C]acetate assessed as [14C]-labeled 24C fatty acid level at 1 uM after 3 hr by liquid scintillation counting (reference value: 11 +/- 0.8%). The test is classed as functional. Also noted: scale not given: the % may be the effect or the level left.

Test [13] has as its system Cucumis sativus. The test is described as follows: Inhibition of fatty acid synthesis in Cucumis sativus (cucumber) using [14C]acetate assessed as [14C]-labeled 22C fatty acid level at 100 uM after 3 hr by liquid scintillation counting (reference value: 10.2 +/-1.6%). The test is classed as functional. Also on record: scale not given: the % may be the effect or the level left.

Test [14] deals with Hordeum vulgare. The test is described as follows: Inhibition of fatty acid synthesis in Hordeum vulgare (barley) using [14C]malonate assessed as [14C]-labeled 22C fatty acid level at 1 uM after 3 hr by liquid scintillation counting (reference value: 26.7 +/- 2.6%). The format is functional. Also on record: scale not given: the % may be the effect or the level left.
The test system of test [15] is Hordeum vulgare. The test can be described thus: Inhibition of fatty acid synthesis in Hordeum vulgare (barley) using [14C]acetate assessed as [14C]-labeled 22C fatty acid level at 1 uM after 3 hr by liquid scintillation counting (reference value: 16.6 +/- 0.6%). The test is classed as functional. Also noted: scale not given: the % may be the effect or the level left.

The test system of test [16] is Cucumis sativus. The test is described as follows: Inhibition of fatty acid synthesis in Cucumis sativus (cucumber) using [14C]acetate assessed as [14C]-labeled 20C fatty acid level at 100 uM after 3 hr by liquid scintillation counting (reference value: 14.7 +/- 0.6%). The test is classed as functional. Also noted: scale not given: the % may be the effect or the level left.

For test [17], the system named is Hordeum vulgare. The test can be described thus: Inhibition of fatty acid synthesis in Hordeum vulgare (barley) using [14C]acetate assessed as [14C]-labeled 20C fatty acid level at 1 uM after 3 hr by liquid scintillation counting (reference value: 6.6 +/- 2.3%). The test is classed as functional. Also noted: scale not given: the % may be the effect or the level left.

Test [18] has as its system Cucumis sativus. The test is described as follows: Inhibition of fatty acid synthesis in Cucumis sativus (cucumber) using [14C]acetate assessed as [14C]-labeled 18C fatty acid level at 100 uM after 3 hr by liquid scintillation counting (reference value: 43.9 +/- 3.6%). The test is classed as functional. Also noted: scale not given: the % may be the effect or the level left.

The subject of test [19] is Hordeum vulgare. The test is described as follows: Inhibition of fatty acid synthesis in Hordeum vulgare (barley) using [14C]malonate assessed as [14C]-labeled 18C fatty acid level at 1 uM after 3 hr by liquid scintillation counting (reference value: 30.3 +/- 2.9%). The format is functional. Also noted: scale not given: the % may be the effect or the level left.
The test system of test [20] is Hordeum vulgare. The test can be described thus: Inhibition of fatty acid synthesis in Hordeum vulgare (barley) using [14C]acetate assessed as [14C]-labeled 18C fatty acid level at 1 uM after 3 hr by liquid scintillation counting (reference value: 42.6 +/- 2.4%). The test is classed as functional. Also on record: scale not given: the % may be the effect or the level left.

The term IC50 denotes the concentration that inhibits the measured activity by half.

For the compound `CCc1cc(C)cc(CC)c1C1C(=O)N2CCOCCN2C1=O` [PINOXADEN DIONE], the Activity in test [1] is reported as 13.8%; in test [2] it was 7.7%; in test [3] it was 30.4%; in test [4], 0.5%; in test [5], 3.1%; in test [6] it was 9.2 ×10⁶ dpm. The Activity in test [7] worked out at 5.1 ×10⁶ dpm; in [8], 2.8 ×10⁶ dpm; in test [11], 27.7%; in test [12], 32.6%; in test [13] it was 11.9%; in test [14], 41.9%. In addition, the Activity in test [15] is 32.7%; in test [16] it was 10.1%; in test [17] it was 3.6%; in [18], 47.4%; in test [19], 8.3%; in test [20] it was 18.1%. Also, the IC50 in [9] is 0.11 µM; in test [10], 16.9 µM.
